Earlier results in patent publication US20030116748A1, “Environmentally friendly compositions having anti-icing, deicing or graffiti prevention properties” (priority 1995, published 2003).
Read-outs that look alike come from different tables or passages of the source.

How the values were obtained:
[1] = individual component at full concentration
[2] = for OSHA PEL: 8 hour time-weighted average

SMILES: OCCO [Ethylene Glycol]
- Permissible concentration limits, Water (Arizona, Massachusetts, Maine): 5.50 (Arizona, mg/L
- Permissible concentration limits, Water (Connecticut): 0.10 (Connecticut) mg/L
- Permissible concentration limits, Air (Federal): 125 (Federal) mg/m^3
- Permissible concentration limits, Air (Massachusetts): 0.17 mg/m^3
- Permissible concentration limits, Air (Nevada): 2.98 (Nevada) mg/m^3
- Permissible concentration limits, Water (New Jersey): 0.29 (New Jersey) mg/L
- Permissible concentration limits, Air (North Dakota): 1.25 (North mg/m^3
- Permissible concentration limits, Water (U.S. EPA): 0.14 (U.S. EPA) mg/L
- Permissible concentration limits, Air (Virginia): 1.00 (Virginia) mg/m^3

SMILES: CC(C)O [Example 2-Propanol, 2-Propanol]
- Solubility in Water [1]: miscible
- OSHA PEL [2]: 400 ppm
- OSHA PEL ([2]; value in brackets): 980 mg/m^3
- NIOSH ([2]; 10 hour time-weighted average): 400 ppm
- NIOSH (STEL) ([2]; Short Term Exposure Limit): 500 ppm
- ACGIH TLV ([2]; time-weighted average): 400 ppm

SMILES: OCC(O)CO [Glycerin, 1,2,3-Propanetriol]
- Solubility in Water [1]: miscible

SMILES: CC(O)CO (centres unmarked) [Propylene Glycol, 1,2-propanediol]
- Permissible concentration limits, Air (Federal): 156 (Federal) mg/m^3
